# Source: patent US20250304576A1 (Cancer Research Technology Limited, priority 2022, published 2025)
# Assays:
# Recombinant IKKα = biological target: T1, Recombinant IKKα (Homo sapiens, UniProt O15111); assay: DELFIA IKKα kinase assay (apparent Ki, Cheng-Prusoff); format: biochemical
# T1 construct: purchased Millipore, Dundee, UK
# T1 sequence (O15111 1-745): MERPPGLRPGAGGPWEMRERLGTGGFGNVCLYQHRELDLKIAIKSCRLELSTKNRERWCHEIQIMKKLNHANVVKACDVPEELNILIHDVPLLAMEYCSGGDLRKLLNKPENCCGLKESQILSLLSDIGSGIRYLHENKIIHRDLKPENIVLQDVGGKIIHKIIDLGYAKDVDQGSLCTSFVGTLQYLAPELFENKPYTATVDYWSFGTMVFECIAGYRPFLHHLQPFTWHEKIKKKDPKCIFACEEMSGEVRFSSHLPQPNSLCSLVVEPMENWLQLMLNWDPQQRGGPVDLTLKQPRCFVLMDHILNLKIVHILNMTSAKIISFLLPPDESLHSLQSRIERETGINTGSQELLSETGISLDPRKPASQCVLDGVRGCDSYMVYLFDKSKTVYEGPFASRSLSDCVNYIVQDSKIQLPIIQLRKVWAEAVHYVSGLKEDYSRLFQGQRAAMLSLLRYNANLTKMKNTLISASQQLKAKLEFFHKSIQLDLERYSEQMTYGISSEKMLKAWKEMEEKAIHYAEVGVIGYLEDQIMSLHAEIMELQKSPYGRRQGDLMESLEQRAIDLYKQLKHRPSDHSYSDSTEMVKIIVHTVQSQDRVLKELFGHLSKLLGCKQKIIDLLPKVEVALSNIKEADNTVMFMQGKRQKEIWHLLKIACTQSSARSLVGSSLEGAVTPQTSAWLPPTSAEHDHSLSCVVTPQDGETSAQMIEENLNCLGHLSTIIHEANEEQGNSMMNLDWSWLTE
# Method in brief: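 DELFIA time-resolved fluorescence (ex 340/em 615 nm) quantified phosphorylation of a biotinylated IκB-α Ser32 peptide (0.375 μM) by 37 nM recombinant IKKα or IKKβ. Reactions used 40 μM ATP, Tris pH 7.5 buffer with MgCl2, DTT and BSA, 60 min at 30° C. Cheng-Prusoff equation gave apparent Ki.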
# CHUK (IKK alpha) = biological target: T2, CHUK (IKK alpha) (Homo sapiens, UniProt O15111); assay: Adapta IKKα assay (TR-FRET ADP formation, Life Technologies); format: biochemical
# T2 construct: purchased Life Technologies (assay performed by the vendor)
# T2 sequence (O15111 1-745): T1 sequence (O15111 1-745)
# Experimental: IKKα and IKKβ inhibitory activity was determined using three different assays: a dissociation enhanced ligand fluorescent immunoassay (DELFIA) based on the protocol of HTScan™ IKKβ Kinase Assay (Cell Signaling Technology, USA); an Adapta IKKα assay (performed by Life Technologies); a Z′-LYTE™ IKKβ assay (performed by Life Technologies).
# The reaction was performed in low-volume white 384-well plates (Corning model 4512).
# The test compounds were screened in 1% DMSO (final) in the well. For 10 point titrations, 3-fold serial dilutions were conducted from the starting concentration of 50 mM.
# The 2× CHUK (IKK alpha) kinase was prepared in 50 mM HEPES pH 7.5, 0.01% BRIJ-35, 10 mM MgCl2 and 1 mM EGTA. The final 10 μL kinase mixture consisted of 50-250 ng CHUK (IKK alpha) in 32.5 mM HEPES pH 7.5, 0.005% BRIJ-35, 5 mM MgCl2 and 0.5 mM EGTA. No substrate was required, as the assay measures the ability of a compound to inhibit the kinase's intrinsic ATPase activity.
# 5 μL of 2× Kinase mixture was incubated with 2.5 μL of ATP solution diluted to a 4×working concentration in water, in the presence of 100 nL of 100× test compound in 100% DMSO and 2.4 μL of 30 mM HEPES buffer.
# After 30-second plate shake and 1-minute centrifuge at 1000×g, the resulting kinase reaction was allowed to incubate for 1 hour at room temperature before 5 μL of Detection Mix was added.
# The Detection Mix, previously prepared in TR-FRET Dilution Buffer, consisted of EDTA (30 mM), Eu-anti-ADP antibody (6 nM) and an Alexa Fluor™ 647 labelled ADP tracer. The Detection Mix contained the EC60 concentration of tracer for 5-150 μM ATP.
# After 30-second plate shake and 1-minute centrifuge at 1000×g, the Detection Mix was allowed to equilibrate at room temperature for 1 hour. Then the plate was read using a fluorescence plate reader configured for Adapta™ TR-FRET and the data analysed.
# ADP formation was determined by calculating the emission ratio from the assay well. Therefore, the emission ratio was calculated by dividing the intensity of the tracer (acceptor) emission by the intensity of the Eu (donor) emission at 615 nm as shown in the equation below.
# The IKKα and IKKb figures quoted in italicised form are from the Adapta assay described above.
# [1] = DELFIA assay (first line of an example)
# [2] = Adapta assay (second line of an example)
# [3] = non-italicised figure: DELFIA assay
Structure (SMILES),Ki (Recombinant IKKα; [1]),IC50 (CHUK (IKK alpha); [2]),Ki (Recombinant IKKα; [3]),IC50 (CHUK (IKK alpha); Adapta assay)
"Nc1n[nH]c2ccc(-c3ccnc4[nH]c(CCCN5CCOCC5)cc34)cc12 [Example 271, 5-(2-(3-Morpholinopropyl)-1H-pyrrolo[2,3-b]pyridin-4-yl)-1H-indazlo-3-amine]",11 nM,1 nM,–,–
"Nc1n[nH]c2c(C#CC3CCCCC3)cc(-c3ccnc4[nH]ccc34)cc12 [Example 204, 7-(Cyclohexylethynyl)-5-(1H-pyrrolo[2,3-b]pyridin-4-yl)-1H-indazol-3-amine]",169 nM,198 nM,–,–
"Nc1n[nH]c2ccc(-c3ccnc4[nH]c(C5CCCCN5)cc34)cc12 (stereo not drawn) [Example 250, 5-(2-(Piperidin-2-yl)-1H-pyrrolo[2,3-b]pyridine-4-yl)-1H-indazol-3-amine]",380 nM,41 nM,–,–
"Nc1n[nH]c2ccc(-c3ccnc4[nH]c(CN5CCCCCC5)cc34)cc12 [Example 265, 5-(2-(Azepan-1-ylmethyl)-1H-pyrrolo[2,3-b]pyridine-4-yl)-1H-indazol-3-amine]",91 nM,13 nM,–,–
"Nc1nccc(-c2ccc3[nH]nc(N)c3c2)c1C#CC1CCCC1 [Example 73, 5-(2-Amino-3-(cyclopentylethynyl)pyridine-4-yl)-1H-indazol-3-amine]",–,–,12 nM,2 nM
"Nc1n[nH]c2ccc(-c3ccnc4[nH]c(C5CCCCO5)cc34)cc12 (stereo not drawn) [Example 229, 5-(2-(Tetrahydro-2H-pyran-2-yl)-1H-pyrrolo[2,3-b]pyridin-4-yl)-1H-indazol-3-amine]",27 nM,1 nM,–,–
"CC(C)(O)C#Cc1cc(-c2ccnc3[nH]ccc23)cc2c(N)n[nH]c12 [Example 206, 4-(3-Amino-5-(1H-pyrrolo[2,3-b]pyridin-4-yl)-1H-indazol-7-yl)-2-methylbut-3-yn-2-ol]",81 nM,9 nM,–,–
"CC(C)(C)C#Cc1cc(-c2ccnc(N)c2)cc2c(N)n[nH]c12 [Example 137, 5-(2-Aminopyridin-4-yl)-7-(3,3-dimethylbut-1-yn-1-yl)-1H-indazol-3-amine]",–,–,53 nM,11 nM
"Nc1n[nH]c2ccc(-c3ccnc4[nH]c(C5CC5)cc34)cc12 [Example 218, 5-(2-Cyclopropyl-1H-pyrrolo[2,3-b]pyridin-4-yl)-1H-indazol-3-amine]",5 nM,1 nM,–,–
"Nc1cc(-c2cc(-c3ccoc3)c3[nH]nc(N)c3c2)ccn1 [Example 129, 5-(2-Aminopyridin-4-yl)-7-(furan-3-yl)-1H-indazol-3-amine]",–,–,10 nM,5 nM
"CN1CCN(Cc2cc3c(-c4ccc5[nH]nc(N)c5c4)ccnc3[nH]2)CC1 [Example 263, 5-(2-((4-Methylpiperazin-1-yl)methyl)-1H-pyrrolo[2,3-b]pyridine-4-yl)-1H-indazol-3-amine]",62 nM,14 nM,–,–
"CC(C)(O)C#Cc1c(-c2ccc3[nH]nc(N)c3c2)ccnc1N [Example 87, 4-(2-Amino-4-(3-amino-1H-indazol-5-yl)pyridine-3-yl)-2-methylbut-3-yn-2-ol]",–,–,8 nM,4 nM
"CN1CCN(C(=O)c2cc3c(-c4ccc5[nH]nc(N)c5c4)ccnc3[nH]2)CC1 [Example 243, (4-(3-Amino-1H-indazol-5-yl)-1H-pyrrolo[2,3-b]pyridin-2-yl)(4-methylpiperazin-1-yl)methanone]",72 nM,13 nM,–,–
"Nc1n[nH]c2ccc(-c3ccnc4[nH]c(CC5CCNCC5)cc34)cc12 [Example 272, 5-(2-(Piperidin-4-ylmethyl)-1H-pyrrolo[2,3-b]pyridin-4-yl)-1H-indazol-3-amine]",5 nM,1 nM,–,–
"Nc1n[nH]c2ccc(-c3ccnc4[nH]c(C5CCCCC5)cc34)cc12 [Example 219, 5-(2-Cyclohexyl-1H-pyrrolo[2,3-b]pyridin-4-yl)-1H-indazol-3-amine]",42 nM,14 nM,–,–
"CC(C)N(C)Cc1cc2c(-c3ccc4[nH]nc(N)c4c3)ccnc2[nH]1 [Example 259, 5-(2-((Isopropyl(methyl)amino)methyl)-1H-pyrrolo[2,3-b]pyridine-4-yl)-1H-indazol-3-amine]",110 nM,32 nM,–,–
"Nc1nccc(-c2ccc3[nH]nc(N)c3c2)c1C#CC1(O)CCCCCC1 [Example 91, 1-((2-Amino-4-(3-amino-1H-indazol-5-yl)pyridine-3-yl)ethynyl)cycloheptan-1-ol]",–,–,105 nM,7 nM
"Nc1nccc(-c2ccc3[nH]nc(N)c3c2)c1C#CCCCO [Example 85, 5-(2-Amino-4-(3-amino-1H-indazol-5-yl)pyridine-3-yl)pent-4-yn-1-ol]",–,–,4 nM,1 nM
"Nc1n[nH]c2ccc(-c3ccnc4[nH]c(CN5CCOCC5)cc34)cc12 [Example 262, 5-(2-(Morpholinomethyl)-1H-pyrrolo[2,3-b]pyridine-4-yl)-1H-indazol-3-amine]",22 nM,2 nM,–,–
"Nc1n[nH]c2ccc(-c3ccnc4[nH]c(C5CCOCC5)cc34)cc12 [Example 228, 5-(2-(tetrahydro-2H-pyran-4-yl)-1H-pyrrolo[2,3-b]pyridin-4-yl)-1H-indazol-3-amine]",12 nM,1 nM,–,–
"Nc1nccc(-c2ccc3[nH]nc(N)c3c2)c1C#CC1(O)CCCCC1 [Example 90, 1-((2-Amino-4-(3-amino-1H-indazol-5-yl)pyridine-3-yl)ethynyl)cyclohexan-1-ol]",–,–,36 nM,3 nM
"CN(C)CCCNCc1cc2c(-c3ccc4[nH]nc(N)c4c3)ccnc2[nH]1 [Example 258, N^1-((4-(3-amino-1H-indazol-5-yl)-1H-pyrrolo[2,3-b]pyridin-2-yl)methyl)-N^3,N^3-dimethylpropane-1,3-diamine]",16 nM,10 nM,–,–
"Nc1n[nH]c2ccc(-c3ccnc4[nH]c(CCN5CCCCC5)cc34)cc12 [Example 267, 5-(2-(2-(Piperidin-1-yl)ethyl)-1H-pyrrolo[2,3-b]pyridine-4-yl)-1H-indazol-3-amine]",53 nM,8 nM,–,–
"Nc1nccc(-c2ccc3[nH]nc(N)c3c2)c1C#CCCCN1CCCCC1 [Example 95, 5-(2-Amino-3-(5-(piperidin-1-yl)pent-1-yn-1-yl)pyridin-4-yl)-1H-indazol-3-amine]",–,–,91 nM,12 nM
"Nc1n[nH]c2c(C#CC3CCCC3)cc(-c3ccnc4[nH]ccc34)cc12 [Example 203, 7-(Cyclopentylethynyl)-5-(1H-pyrrolo[2,3-b]pyridin-4-yl)-1H-indazol-3-amine]",26 nM,16 nM,–,–
"Nc1n[nH]c2ccc(-c3ccnc4[nH]c(CCN5CCOCC5)cc34)cc12 [Example 268, 5-(2-(2-Morpholinoethyl)-1H-pyrrolo[2,3-b]pyridin-4-yl)-1H-indazol-3-amine]",11 nM,1 nM,–,–
"Nc1cc(-c2cc(-c3ccccc3)c3[nH]nc(N)c3c2)ccn1 [Example 104, 5-(2-Aminopyridin-4-yl)-7-phenyl-1H-indazol-3-amine]",–,–,54 nM,3 nM
